Tests used:
Assay type in all cases: in vivo
quack grass = experiment: Herbicidal activity test against upland field weeds (soil treatment test); set-up: key to Soil treatment herbicidal activity, quack grass: 0 (no control); 100 (complete control); settings: 50 g ai/ha, scale 0 (no control) to 100 (complete control)
Procedure, shortened: (§1)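 Pre-emergence test: seeds or rootstocks were sown in fertilized sandy loam, and the next day the soil surface was sprayed with compound at 50 or 75 g a.i./ha in 50% acetone/0.1% Tween-20. Plants were grown in a greenhouse (30±5 °C, 14/10 h light/dark), then visually scored 0–100 against untreated at 14 d (21 d if needed).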

bindweed = experiment: as above; set-up: key to Soil treatment herbicidal activity, Bindweed: 0 (no control); 100 (complete control); settings: 50 g ai/ha, scale 0 (no control) to 100 (complete control)
Procedure, shortened: as §1

black nightshade = experiment: Herbicidal activity test against upland field weeds (foliar treatment test); set-up: key to Foliar treatment herbicidal activity, black nightshade: 0 (no control); 100 (complete control); settings: 50 g ai/ha, scale 0-100
Procedure, shortened: (§2)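 Weeds were raised from seed or rootstocks in horticultural soil in a greenhouse (30±5° C., 14/10 h light/dark), then foliage was hand-sprayed with compound at 50 or 75 g a.i./ha in 50% acetone with 0.1% Tween-20. Control was scored visually 0–100 against untreated plants after 14 days, or 21 if needed.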

rice = experiment: Phytotoxicity test for upland field crops (foliar treatment test); set-up: key: 0 (no harm); 9 (complete withered)
Procedure, shortened: (§3)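 Application rate ranged 19˜300 g a.i./ha, delivered as a foliar spray (100 ml/m^2) in 33% acetone with 0.1% Tween-20 to crops raised at 30±5 °C under 14/10 h light/dark. Symptoms were assessed 7 and 14 days post-treatment, extending to 21 days where necessary, using a 0–9 injury grade relative to untreated control.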

soybean = experiment: as above; set-up: key: 0 (no harm); 9 (complete withered)
Procedure, shortened: as §3

cotton = experiment: as above; set-up: key: 0 (no harm); 9 (complete withered)
Procedure, shortened: as §3

corn = experiment: as above; set-up: key: 0 (no harm); 9 (complete withered)
Procedure, shortened: as §3

wheat = experiment: as above; set-up: key: 0 (no harm); 9 (complete withered)
Procedure, shortened: as §3

indian jointvetch = experiment: Herbicidal activity test against upland field weeds (foliar treatment test); set-up: key to Foliar treatment herbicidal activity, Indian jointvetch: 0 (no control); 100 (complete control); settings: 50 g ai/ha, scale 0-100
Procedure, shortened: as §2

velvetleaf [1] = experiment: as above; set-up: key to Foliar treatment herbicidal activity, velvet leaf: 0 (no control); 100 (complete control); settings: 50 g ai/ha; for pest or weed control at 50 g/ha: Abutilon theophrasti, scale 0-100, read-out: Foliar treatment herbicidal activity, velvet leaf; for Foliar treatment herbicidal activity, velvet leaf: scale 0-100
Procedure, shortened: as §2

barnyard grass = experiment: Herbicidal activity test against upland field weeds (soil treatment test); set-up: key to Soil treatment herbicidal activity, barnyard grass: 0 (no control); 100 (complete control); settings: 50 g ai/ha, scale 0 (no control) to 100 (complete control)
Procedure, shortened: as §1

velvetleaf [2] = experiment: as above; set-up: key to Soil treatment herbicidal activity, velvet leaf: 0 (no control); 100 (complete control); settings: 50 g ai/ha, scale 0 (no control) to 100 (complete control)
Procedure, shortened: as §1

cocklebur = experiment: Herbicidal activity test against upland field weeds (foliar treatment test); settings: Xanthium strumarium, 50 g ai/ha, scale 0-100
Procedure, shortened: as §2

[3] = 50 g ai/ha, Rice (7 days after treatment)
[4] = 50 g ai/ha, Rice (14 days after treatment)
[5] = 100 g ai/ha, Rice (7 days after treatment)
[6] = 100 g ai/ha, Rice (14 days after treatment)
[7] = 50 g ai/ha, Soybean (7 days after treatment)
[8] = 50 g ai/ha, Soybean (14 days after treatment)
[9] = 100 g ai/ha, Soybean (7 days after treatment)
[10] = 100 g ai/ha, Soybean (14 days after treatment)
[11] = 50 g ai/ha, Cotton (7 days after treatment)
[12] = 50 g ai/ha, Cotton (14 days after treatment)
[13] = 100 g ai/ha, Cotton (7 days after treatment)
[14] = 100 g ai/ha, Cotton (14 days after treatment)
[15] = 50 g ai/ha, Corn (7 days after treatment)
[16] = 50 g ai/ha, Corn (14 days after treatment)
[17] = 100 g ai/ha, Corn (7 days after treatment)
[18] = 100 g ai/ha, Corn (14 days after treatment)
[19] = 50 g ai/ha, Wheat (7 days after treatment)
[20] = 50 g ai/ha, Wheat (14 days after treatment)
[21] = 100 g ai/ha, Wheat (7 days after treatment)
[22] = 100 g ai/ha, Wheat (14 days after treatment)

Structure (SMILES)	Foliar treatment phytotoxicity, Rice (rice; [3])	Foliar treatment phytotoxicity, Rice (rice; [4])	Foliar treatment phytotoxicity, Rice (rice; [5])	Foliar treatment phytotoxicity, Rice (rice; [6])	Foliar treatment phytotoxicity, Soybean (soybean; [7])	Foliar treatment phytotoxicity, Soybean (soybean; [8])	Foliar treatment phytotoxicity, Soybean (soybean; [9])	Foliar treatment phytotoxicity, Soybean (soybean; [10])	Foliar treatment phytotoxicity, Cotton (cotton; [11])	Foliar treatment phytotoxicity, Cotton (cotton; [12])	Foliar treatment phytotoxicity, Cotton (cotton; [13])	Foliar treatment phytotoxicity, Cotton (cotton; [14])	Foliar treatment phytotoxicity, Corn (corn; [15])	Foliar treatment phytotoxicity, Corn (corn; [16])	Foliar treatment phytotoxicity, Corn (corn; [17])	Foliar treatment phytotoxicity, Corn (corn; [18])	Foliar treatment phytotoxicity, Wheat (wheat; [19])	Foliar treatment phytotoxicity, Wheat (wheat; [20])	Foliar treatment phytotoxicity, Wheat (wheat; [21])	Foliar treatment phytotoxicity, Wheat (wheat; [22])	also measured
Cn1nnc(COCc2nc(C(F)(F)F)ccc2C(=O)Nc2nnnn2C)n1 [Compound No. 2-59, N-(1-methyl-1H-tetrazol-5-yl)-2-(((2-methyl-2H-tetrazol-5-yl)methoxy)methyl)-6-(trifluoromethyl)nicotinamide]	3	4	3	6	5	7	5	7	3	8	3	9	0	2	3	4	0	0	0	0	pest or weed control at 50 g/ha (quack grass): 20%; pest or weed control at 50 g/ha (bindweed): 90%; Foliar treatment herbicidal activity, black nightshade (black nightshade): 100; pest or weed control at 50 g/ha (indian jointvetch): 98%; pest or weed control at 50 g/ha (velvetleaf [1]): 98%; Soil treatment herbicidal activity, barnyard grass (barnyard grass): 100; Soil treatment herbicidal activity, velvet leaf (velvetleaf [2]): 100; pest or weed control at 50 g/ha (cocklebur): 98%
Cn1nnc(COCc2nc(C(F)(F)Cl)ccc2C(=O)Nc2nnnn2C)n1 [Compound No. 2-78, 6-(chlorodifluoromethyl)-N-(1-methyl-1H-tetrazol-5-yl)-2-(((2-methyl-2H-tetrazol-5-yl)methoxy)methyl)nicotinamide]	5	4	6	5	5	5	6	6	5	9	6	9	2	1	3	1	0	0	0	0	Soil treatment herbicidal activity, quack grass (quack grass): 0; pest or weed control at 50 g/ha (bindweed): 40%; pest or weed control at 50 g/ha (black nightshade; Solanum nigrum): 95%; pest or weed control at 50 g/ha (indian jointvetch): 80%; pest or weed control at 50 g/ha (velvetleaf [1]): 60%; Soil treatment herbicidal activity, barnyard grass (barnyard grass): 100; Soil treatment herbicidal activity, velvet leaf (velvetleaf [2]): 100; pest or weed control at 50 g/ha (cocklebur): 60%
CON(Cc1nnn(C)n1)c1nc(C(F)(F)F)ccc1C(=O)Nc1nnnn1C [Compound No. 2-30, 2-(methoxy((2-methyl-2H-tetrazol-5-yl)methyl)amino)-N-(1-methyl-1H-tetrazol-5-yl)-6-(trifluoromethyl)nicotinamide]	3	5	5	7	0	0	6	6	0	0	3	8	0	0	1	1	2	1	3	3	Soil treatment herbicidal activity, quack grass (quack grass): 0; pest or weed control at 50 g/ha (bindweed): 70%; Foliar treatment herbicidal activity, black nightshade (black nightshade): 100; Foliar treatment herbicidal activity, Indian jointvetch (indian jointvetch): 100; Foliar treatment herbicidal activity, velvet leaf (velvetleaf [1]): 100; Soil treatment herbicidal activity, barnyard grass (barnyard grass): 100; Soil treatment herbicidal activity, velvet leaf (velvetleaf [2]): 100; pest or weed control at 50 g/ha (cocklebur): 98%
Cn1nnnc1COCc1nc(C(F)(F)F)ccc1C(=O)Nc1nnnn1C [Compound No. 1-61, N-(1-methyl-1H-tetrazol-5-yl)-2-(((1-methyl-1H-tetrazol-5-yl)methoxy)methyl)-6-(trifluoromethyl)nicotinamide]	4	6	5	6	6	9	0	9	3	6	0	7	0	0	0	0	4	3	0	6	Soil treatment herbicidal activity, quack grass (quack grass): 0; Soil treatment herbicidal activity, Bindweed (bindweed): 0; Foliar treatment herbicidal activity, black nightshade (black nightshade): 100; Foliar treatment herbicidal activity, Indian jointvetch (indian jointvetch): 100; Foliar treatment herbicidal activity, velvet leaf (velvetleaf [1]): 100; pest or weed control at 50 g/ha (barnyard grass; Echinochloa crus-galli): 20%; pest or weed control at 50 g/ha (velvetleaf [2]; Abutilon theophrasti, read-out: Soil treatment herbicidal activity, velvet leaf): 90%; pest or weed control at 50 g/ha (cocklebur): 98%

Reference: patent US12495798B2, “Nicotinamide compound and herbicidal composition comprising compound” (KOREA RESEARCH INSTITUTE OF CHEMICAL TECHNOLOGY, priority 2019, dated 2025)
